Measured values as given in the supplement of paper PMC10331698.
± gives the standard deviation of the averaged measurements.

Legend:
Assay in all cases: level (log10 ratio to DMSO vehicle control); higher = higher biomarker level / cell amount than vehicle control
Conditions in all cases: in DMSO
[1] = compound: C=C(C)C(=O)OCC(F)(F)C(F)(F)C(F)(F)C(F)(F)C(F)(F)C(F)(F)C(F)(F)F
Method: (§1)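 BioMAP Diversity Plus panel of 12 human primary cell co-culture systems (3C, 4H, LPS, SAg, BT, BF4T, BE3C, CASM3C, HDF3CGF, KF3CT, MyoF, Mphg). Compounds were added 1 h before stimulation and left for 24 h (MyoF 48 h; BT 72 h for soluble read-outs or 6 d for IgG). Biomarkers were read by ELISA, cytotoxicity by SRB, PBMC viability and proliferation by Alamar Blue. Each well value was divided by the mean of 8 DMSO control wells on the same plate and log10 transformed; duplicate blinded samples were tested at 4 concentrations.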

1-(Perfluorohexyl)octane = compound: CCCCCCCCC(F)(F)C(F)(F)C(F)(F)C(F)(F)C(F)(F)C(F)(F)F [1-(Perfluorohexyl)octane]
Method: as §1

Perfluorohexanoic acid = compound: O=C(O)C(F)(F)C(F)(F)C(F)(F)C(F)(F)C(F)(F)F [Perfluorohexanoic acid]
Method: as §1

[2] = compound: O=C(O)C(F)(F)OC(F)(F)C(F)(F)OC(F)(F)C(F)(F)C(F)(F)C(F)(F)F [Perfluoro-3,6-dioxadecanoic acid]
Method: as §1

[3] = compound: O=P(O)(O)CCC(F)(F)C(F)(F)C(F)(F)C(F)(F)C(F)(F)C(F)(F)C(F)(F)C(F)(F)F [((Perfluorooctyl)ethyl)phosphonic acid]
Method: as §1

[4] = compound: O=S(=O)(O)C(F)(F)C(F)(F)C(F)(F)C(F)(F)C(F)(F)C(F)(F)C(F)(F)C(F)(F)F [Potassium perfluorooctanesulfonate]
Method: as §1

[5] = compound: OCC(F)(F)C(F)(F)C(F)(F)C(F)(F)C(F)(F)C(F)F [1H,1H,7H-Dodecafluoro-1-heptanol]
Method: as §1

Test System	level (log10) ([1]; 6700 nM)	level (log10) ([1]; 20000 nM)	level (log10) (1-(Perfluorohexyl)octane; 6700 nM)	level (log10) (1-(Perfluorohexyl)octane; 20000 nM)	level (log10) (Perfluorohexanoic acid; 6700 nM)	level (log10) (Perfluorohexanoic acid; 20000 nM)	level (log10) (Perfluorohexanoic acid; 60000 nM)	level (log10) ([2]; 6700 nM)	level (log10) ([2]; 20000 nM)	level (log10) ([2]; 60000 nM)	level (log10) ([3]; 6700 nM)	level (log10) ([3]; 20000 nM)	level (log10) ([3]; 60000 nM)	level (log10) ([4]; 6700 nM)	level (log10) ([4]; 20000 nM)	level (log10) ([4]; 60000 nM)	level (log10) ([5]; 6700 nM)	level (log10) ([5]; 20000 nM)	level (log10) ([5]; 60000 nM)
BF4T:MMP-1	-0.0075 ± 0.015	0.016 ± 0.011	-0.0155 ± 0.035	0.0075 ± 0.052	0.0005 ± 0.015	-0.009 ± 0.0071	-0.0005 ± 0.0078	-0.046 ± 0.013	0.01 ± 0.037	0.0625 ± 0.015	-0.005 ± 0.0014	0.0075 ± 0.022	0.007 ± 0.05	0.028 ± 0.017	0.046 ± 0.0028	0.062 ± 0.011	0.0095 ± 0.04	0.0145 ± 0.037	0.0245 ± 0.0092
BF4T:MMP-3	0.002 ± 0.023	-0.007 ± 0.018	0.005 ± 0.0057	-0.0135 ± 0.016	0.003 ± 0.024	-0.0095 ± 0.00071	0.0295 ± 0.043	0.008 ± 0.0057	0.11 ± 0.015	0.161 ± 0.037	-0.013 ± 0.02	0.009 ± 0.011	0.014 ± 0.079	0.0175 ± 0.028	0.0635 ± 0.026	0.087 ± 0.065	-0.01 ± 0.034	-0.012 ± 0.038	0.001 ± 0.04
BF4T:MMP-9	0.015 ± 0.0071	0.0165 ± 0.005	-0.014 ± 0.02	0.005 ± 0.025	0.0215 ± 0.0035	-0.01 ± 0.027	0.0215 ± 0.018	-0.035 ± 0.0057	-0.0215 ± 0.0064	-0.051 ± 0.02	-0.014 ± 0.0014	-0.014 ± 0.011	0.0305 ± 0.021	0.024 ± 0.017	0.048 ± 0.02	0.0665 ± 0.046	-0.0055 ± 0.03	-0.011 ± 0.027	0.0095 ± 0.046
BF4T:PAI-I	0.0195 ± 0.022	0.0135 ± 0.019	0.0075 ± 0.026	0.0005 ± 0.028	0.011	0.004 ± 0.0028	0.0145 ± 0.0064	-0.057 ± 0.011	-0.0575 ± 0.005	-0.054 ± 0.042	0.003 ± 0.0042	0.0055 ± 0.011	0.016 ± 0.021	0.0015 ± 0.0092	-0.0045 ± 0.0078	0.007 ± 0.04	0.0055 ± 0.005	-0.0035 ± 0.013	0.0105 ± 0.013
BF4T:SRB	0.0005 ± 0.0078	-0.005 ± 0.011	-0.0045 ± 0.0035	-0.0035 ± 0.0035	-0.0025 ± 0.00071	-0.0095 ± 0.0092	0.0105 ± 0.0064	-0.024 ± 0.0014	-0.023 ± 0.0057	-0.053 ± 0.0085	-0.008 ± 0.0028	-0.009 ± 0.0014	-0.0045 ± 0.0078	-0.01 ± 0.011	-0.01 ± 0.0099	-0.002 ± 0.0099	-0.007 ± 0.0028	-0.01	-0.0005 ± 0.005
BF4T:tPA	0.0085 ± 0.0035	-0.0115 ± 0.021	0.0075 ± 0.013	0.026 ± 0.0057	-0.0045 ± 0.0064	-0.0035 ± 0.019	0.0055 ± 0.013	-0.051 ± 0.0014	-0.0565 ± 0.026	0.0105 ± 0.05	0.0055 ± 0.013	0.0645 ± 0.005	0.072 ± 0.054	-0.0045 ± 0.0092	-0.019 ± 0.0028	0.0185 ± 0.032	0.0045 ± 0.0078	-0.0025 ± 0.00071	0.01 ± 0.011
BF4T:uPA	0.0015 ± 0.032	-0.0055 ± 0.005	-0.0105 ± 0.0035	-0.0125 ± 0.00071	0.01 ± 0.0028	0.004	0.0105 ± 0.0078	0.0105 ± 0.005	0.008 ± 0.013	0.025 ± 0.031	0.008 ± 0.0085	0.0185 ± 0.018	0.0205 ± 0.057	-0.004 ± 0.0028	0.01 ± 0.016	0.0395 ± 0.043	-0.0125 ± 0.019	-0.0145 ± 0.0021	-0.002 ± 0.0014
BT:B cell Proliferation	-0.005 ± 0.021	0.0115 ± 0.0078	0.0145 ± 0.011	0.012 ± 0.011	-0.047 ± 0.048	-0.0035 ± 0.042	0.0275 ± 0.063	0.012 ± 0.0071	0.0415 ± 0.019	0.055 ± 0.011	0.014 ± 0.021	-0.0325 ± 0.044	-0.136 ± 0.058	0.031 ± 0.016	0.0425 ± 0.018	0.0795 ± 0.005	-0.014 ± 0.0028	-0.035 ± 0.0014	-0.04 ± 0.02
BT:PBMC Cytotoxicity	0.0145 ± 0.025	0.0105 ± 0.029	0 ± 0.013	0.0225 ± 0.0021	-0.024 ± 0.028	-0.0405 ± 0.028	0.004 ± 0.0057	0.017 ± 0.028	0.0265 ± 0.0021	0.0915 ± 0.005	0.0055 ± 0.00071	0 ± 0.0057	0.0095 ± 0.015	-0.0055 ± 0.022	0.0125 ± 0.033	0.097 ± 0.058	-0.0155 ± 0.0021	-0.016 ± 0.013	-0.049 ± 0.0028
BT:Secreted IgG	0.021 ± 0.055	0.024 ± 0.013	0.0355 ± 0.012	0.04 ± 0.028	0.0085 ± 0.00071	0.0155 ± 0.03	-0.023 ± 0.061	0.0295 ± 0.012	0.0235 ± 0.033	-0.0365 ± 0.0064	0.001 ± 0.02	0.0005 ± 0.0035	-0.02 ± 0.0057	0.0115 ± 0.018	0.018 ± 0.0071	-0.0055 ± 0.005	0.014 ± 0.025	-0.01 ± 0.028	-0.0275 ± 0.03
BT:sIL-2	0.012 ± 0.0099	0.0075 ± 0.047	-0.024 ± 0.073	0.0635 ± 0.067	-0.0225 ± 0.0064	0.0345 ± 0.098	0.0275 ± 0.074	0.0465 ± 0.036	0.0285 ± 0.16	-0.011 ± 0.095	0.0065 ± 0.036	0.067 ± 0.069	-0.107 ± 0.22	0.042 ± 0.027	0.0595 ± 0.029	-0.0325 ± 0.077	0.026 ± 0.013	-0.0265 ± 0.005	-0.025 ± 0.045
BT:sIL-6	0.016 ± 0.0057	-0.019 ± 0.059	-0.0155 ± 0.094	-0.006 ± 0.03	-0.0375 ± 0.079	0.013 ± 0.062	-0.037 ± 0.021	0.0375 ± 0.029	0.0265 ± 0.039	-0.058 ± 0.033	0.045 ± 0.0014	0.0645 ± 0.035	-0.019 ± 0.055	0.0165 ± 0.042	0.0765 ± 0.016	-0.023 ± 0.11	0.007 ± 0.085	-0.037 ± 0.014	-0.113 ± 0.068
BT:sIL-17A	0.0535 ± 0.073	-0.0375 ± 0.22	0.06 ± 0.018	0.0085 ± 0.12	0.009 ± 0.22	0.038 ± 0.075	-0.086 ± 0.068	0.034 ± 0.12	0.045 ± 0.22	-0.147 ± 0.065	0.0985 ± 0.00071	0.132 ± 0.044	0.0985 ± 0.083	0.023 ± 0.25	0.158 ± 0.1	-0.133 ± 0.022	-0.182 ± 0.044	-0.091 ± 0.14	-0.174 ± 0.16
BT:sIL-17F	0.0315 ± 0.0035	-0.0245 ± 0.063	0.083 ± 0.033	0.089 ± 0.0071	-0.081 ± 0.0014	-0.002 ± 0.081	-0.047 ± 0.031	-0.016 ± 0.055	-0.0335 ± 0.12	-0.021 ± 0.1	-0.094 ± 0.081	0.035 ± 0.025	-0.0045 ± 0.088	-0.085 ± 0.037	-0.06 ± 0.11	-0.072 ± 0.037	-0.104 ± 0.2	-0.0695 ± 0.07	-0.061 ± 0.064
BT:sTNF-alpha	-0.042 ± 0.0099	-0.0145 ± 0.013	0.0415 ± 0.028	0.126 ± 0.16	-0.036 ± 0.05	-0.023 ± 0.081	-0.01 ± 0.11	0.0675 ± 0.086	0.0875 ± 0.08	-0.046 ± 0.051	-0.019 ± 0.013	-0.0175 ± 0.15	-0.211 ± 0.39	0.003 ± 0.076	0.0225 ± 0.069	-0.039 ± 0.016	-0.01 ± 0.31	0.0815 ± 0.039	-0.0155 ± 0.15
